# Data as given in patent publication US20200288710A1, “SUBSTITUTED SULPHONAMIDES FOR CONTROLLING ANIMAL PESTS” (BAYER CROPSCIENCE AKTIENGESELLSCHAFT, priority 2016, published 2020).
# Columns and labels:
# Type in all cases: in vivo
# Phaedon cochleariae = Phaedon cochleariae spray test; details: foliar, 168 h, Chinese cabbage leaf discs, larvae, after 7 days, read-out: efficacy
# Experimental: Phaedon cochleariae—Spray Test
# To produce a suitable preparation of active compound, 1 part by weight of active compound is dissolved using the specified parts by weight of solvent and made up with water containing an emulsifier concentration of 1000 ppm until the desired concentration is attained. To produce further test concentrations, the formulation is diluted with emulsifier-containing water.
# After 7 days, the efficacy in % is determined. 100% means that all the beetle larvae have been killed; 0% means that no beetle larvae have been killed.
# Myzus persicae [1] = assay: Myzus persicae oral test; details: 120 h, oral uptake, after 5 days, read-out: efficacy
# Outline: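 Compound dissolved in acetone, diluted in water, then mixed 50:150 μl with IPL41 insect medium (33%+15% sugar). Mixed-population green peach aphids feed through a parafilm seal on the solution; mortality scored as % efficacy after 5 days (100% = all killed).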
# Myzus persicae [2] = assay: Myzus persicae spray test (Chinese cabbage leaf discs); details: foliar, 120 h, 500 g/ha, after 5-6 days, read-out: efficacy
# Outline: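 Chinese cabbage leaf discs infested with all stages of green peach aphid were sprayed with compound formulated in acetone/DMF and emulsifier-containing water. Efficacy in % was scored after 5-6 days, with 100% meaning all aphids killed and 0% none killed.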
# Meloidogyne incognita = Meloidogyne incognita test; details: 336 h, lettuce, after 14 days, read-out: nematicidal efficacy (formation of galls)
# Outline: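 Active compound in acetone, diluted with water, added to sand-filled vessels with M. incognita eggs/larvae and lettuce seeds. After 14 days, efficacy scored by root gall formation: 100% = no galls, 0% = galls equal to untreated control.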
SMILES,pest or weed control at 500 g/ha (Phaedon cochleariae) [%],pest or weed control at 20 ppm (Myzus persicae [1]) [%],pest or weed control at 500 g/ha (Myzus persicae [2]) [%],pest or weed control at 20 ppm (Meloidogyne incognita) [%],pest or weed control at 4 ppm (Myzus persicae [1]) [%]
Cc1ccc(C(F)(F)F)cc1S(=O)(=O)NC(=O)c1cn(C)c(-c2c(F)cccc2F)n1 [Example 399],100,100,100,90,
Cc1cccc(Cl)c1S(=O)(=O)NC(=O)c1cn(C)c(-c2ncccc2F)n1 [Example 599],100,100,100,100,
Cc1cccc(Cl)c1S(=O)(=O)NC(=O)c1cn(C)c(-c2cccc(Cl)c2Cl)n1 [Example 556],100,100,90,90,
Cc1cc(C(=O)NS(=O)(=O)c2c(Cl)cccc2Cl)nn1-c1ccccc1Cl [Example 269],83,100,100,100,
Cn1cc(C(=O)NS(=O)(=O)c2ccc(Br)cc2C(F)(F)F)nc1-c1c(F)cccc1F [Example 449],100,100,100,100,
Cn1cc(C(=O)NS(=O)(=O)c2ccc(F)cc2C(F)(F)F)nc1-c1c(F)cccc1F [Example 448],100,100,100,90,
COc1ccc(Cl)c(S(=O)(=O)NC(=O)c2cn(C)c(-c3ncccc3Cl)n2)c1 [Example 575],83,100,90,90,
CCc1ccc(Cl)cc1S(=O)(=O)NC(=O)c1cn(C)c(-c2ncccc2Cl)n1 [Example 583],100,100,100,90,
Cc1c(S(=O)(=O)NC(=O)c2cn(C)c(-c3c(F)cccc3F)n2)sc2ccc(Cl)cc12 [Example 324],100,100,100,90,
Cc1cccc(C(F)(F)F)c1S(=O)(=O)NC(=O)c1cn(C)c(-c2c(F)cccc2F)n1 [Example 369],100,100,100,90,
CSc1cccc(Cl)c1S(=O)(=O)NC(=O)c1cn(C)c(-c2c(F)cccc2F)n1 [Example 385],100,100,100,90,
Cc1ccccc1S(=O)(=O)NC(=O)c1cn(C)c(-c2cc(Cl)ccc2Cl)n1 [Example 517],100,100,90,100,
Cn1cc(C(=O)NS(=O)(=O)c2ccc(Cl)cc2I)nc1-c1c(F)cccc1F [Example 439],100,100,90,90,
CCc1ccc(Cl)cc1S(=O)(=O)NC(=O)c1cn(C)c(-c2ccccc2Cl)n1 [Example 280],100,100,90,90,
Cn1cc(C(=O)NS(=O)(=O)c2cc(Br)ccc2Br)nc1-c1ccccc1Cl [Example 429],100,100,90,100,
Cc1c(Cl)cccc1S(=O)(=O)NC(=O)c1cn(C)c(-c2c(F)cccc2F)n1 [Example 316],100,100,90,90,
Cc1cccc(C)c1S(=O)(=O)NC(=O)c1cn(C)c(-c2ncccc2F)n1 [Example 602],83,100,90,90,
COc1ccc(C)c(S(=O)(=O)NC(=O)c2cn(C)c(-c3ccccc3Cl)n2)c1 [Example 424],100,100,90,90,
Cc1ccccc1S(=O)(=O)NC(=O)c1nc(-c2c(F)cccc2F)n(C)c1Cl [Example 552],83,,90,90,

SMILES,pest or weed control at 500 g/ha (Phaedon cochleariae) [%],pest or weed control at 20 ppm (Myzus persicae [1]) [%],pest or weed control at 500 g/ha (Myzus persicae [2]) [%],pest or weed control at 20 ppm (Meloidogyne incognita) [%],pest or weed control at 4 ppm (Myzus persicae [1]) [%]
Cc1cccc(C(F)(F)F)c1S(=O)(=O)NC(=O)c1cn(C)c(-c2ncccc2Cl)n1 [Example 586],100,,100,90,100
Cc1ccccc1S(=O)(=O)NC(=O)c1cn(C)c(-c2sccc2Cl)n1 [Example 548],83,90,90,90,
Cc1cc(Br)ccc1S(=O)(=O)NC(=O)c1cn(C)c(-c2c(F)cccc2F)n1 [Example 446],100,100,90,90,
Cn1cc(C(=O)NS(=O)(=O)c2c(Cl)cccc2Cl)nc1-c1ccccc1Cl [Example 227],83,,100,100,
Cc1ccc(Cl)c(S(=O)(=O)NC(=O)c2cn(C)c(-c3c(F)cccc3F)n2)c1Cl [Example 434],100,100,100,100,
Cc1ccc(S(=O)(=O)NC(=O)c2cn(C)c(-c3c(F)cccc3F)n2)c(Cl)c1 [Example 450],100,90,100,100,
CSc1ccccc1S(=O)(=O)NC(=O)c1cn(C)c(-c2ccccc2Cl)n1 [Example 423],100,100,100,90,
CCc1cccc(OC(F)F)c1S(=O)(=O)NC(=O)c1cn(C)c(-c2c(F)cccc2F)n1 [Example 339],100,100,90,100,
Cn1cc(C(=O)NS(=O)(=O)c2ccccc2Cl)nc1-c1c(F)cccc1Cl [Example 106],100,100,90,100,
CCc1cccc(F)c1S(=O)(=O)NC(=O)c1cn(C)c(-c2c(F)cccc2F)n1 [Example 338],100,100,90,100,
CCc1ccccc1S(=O)(=O)NC(=O)c1cn(C)c(-c2ncccc2Cl)n1 [Example 581],100,,100,100,100
Cc1cccc(S(=O)(=O)NC(=O)c2cn(C)c(-c3c(F)cccc3F)n2)c1 [Example 176],83,90,90,100,
Cn1cc(C(=O)NS(=O)(=O)c2cccc(Cl)c2I)nc1-c1c(F)cccc1F [Example 313],100,100,90,90,
Cc1ccc(Br)cc1S(=O)(=O)NC(=O)c1cn(C)c(-c2c(F)cccc2F)n1 [Example 398],100,100,90,90,
Cn1cc(C(=O)NS(=O)(=O)c2cc(Cl)ccc2Cl)nc1-c1c(F)cccc1F [Example 171],83,100,90,100,
Cc1ccc(F)cc1S(=O)(=O)NC(=O)c1cn(C)c(-c2cccc(Cl)c2Cl)n1 [Example 319],100,100,100,90,
Cc1cc(F)c(F)cc1S(=O)(=O)NC(=O)c1cn(C)c(-c2c(F)cccc2F)n1 [Example 289],100,100,90,90,
Cn1c(-c2c(F)cccc2F)nc(C(=O)NS(=O)(=O)c2ccccc2Cl)c1Cl [Example 550],100,,90,90,
